In brackets after ≈: the same amount, converted by molar mass. Where two headings read alike, the source gives them in different places.
Key:
Type in all cases: cell-based
[1] = system: Staphylococcus Shimanishi; experiment: MIC against bacteria (Table I), strain (17)
Excerpt: (§1) Now, for illustrating the excellent pharmacological effects of the compounds of this invention, the values of MIC (γ/ml.) of the compounds against various bacteria are shown in Table 1, in which the compounds of this invention used are shown by example numbers.
(17) Staphylococcus Shimanishi

[2] = system: Salmonella typhi H901 W; experiment: MIC against bacteria (Table I), strain (9); details: Salmonella enterica, TYPHI
Excerpt: as §1
(9) Salmonella typhi H901 W

[3] = system: Psuedomonas ovalis IMA 1002; experiment: MIC against bacteria (Table I), strain (6)
Excerpt: as §1
(6) Psuedomonas ovalis IMA 1002

[4] = system: Staphylococcus Onuma; experiment: MIC against bacteria (Table I), strain (18)
Excerpt: as §1
(18) Staphylococcus Onuma

[5] = system: Pseudomonas aeruginosa 99 (Gentamycin resistant); experiment: MIC against bacteria (Table I), strain (5)
Excerpt: as §1
(5) Pseudomonas aeruginosa 99 (Gentamycin resistant)

[6] = system: Staphylococcus aureus 209P; experiment: MIC against bacteria (Table I), strain (16)
Excerpt: as §1
(16) Staphylococcus aureus 209P

[7] = system: Salmonella enteritidis; experiment: MIC against bacteria (Table I), strain (10); details: Salmonella enterica
Excerpt: as §1
(10) Salmonella enteritidis

[8] = system: Proteus vulgaris 0X 19US; experiment: MIC against bacteria (Table I), strain (2); details: 0X19US
Excerpt: as §1
(2) Proteus vulgaris 0X 19US

[9] = system: Klebsiella pneumoniae ATCC 10031; experiment: MIC against bacteria (Table I), strain (8); details: ATCC10031
Excerpt: as §1
(8) Klebsiella pneumoniae ATCC 10031

[10] = system: Bacillus subtilis ATCC 6633; experiment: MIC against bacteria (Table I), strain (14); details: ATCC6633
Excerpt: as §1
(14) Bacillus subtilis ATCC 6633

[11] = system: Shigella flexneri 2a 1675; experiment: MIC against bacteria (Table I), strain (11); details: 2A1675
Excerpt: as §1

[12] = system: Proteus mirabilis IXM OM-19; experiment: MIC against bacteria (Table I), strain (3); details: IXMOM19
Excerpt: as §1
(3) Proteus mirabilis IXM OM-19

[13] = system: Shigella sonnei II 37148; experiment: MIC against bacteria (Table I), strain (12); details: II37148
Excerpt: as §1

[14] = system: Escherichia coli kauffmann 0-1; experiment: MIC against bacteria (Table I), strain (7)
Excerpt: as §1
(7) Escherichia coli kauffmann 0-1

[15] = system: Micrococcus flavus ATCC 10240; experiment: MIC against bacteria (Table I), strain (15); details: ATCC10240
Excerpt: as §1
(15) Micrococcus flavus ATCC 10240

[16] = system: Bacillus megatherium 10778; experiment: MIC against bacteria (Table I), strain (13)
Excerpt: as §1

[17] = (17) Staphylococcus Shimanishi, read-out: MIC
[18] = (6) Psuedomonas ovalis IMA 1002, read-out: MIC
[19] = (18) Staphylococcus Onuma, read-out: MIC
[20] = (5) Pseudomonas aeruginosa 99 (Gentamycin resistant), read-out: MIC
[21] = (10) Salmonella enteritidis, read-out: MIC
[22] = (2) Proteus vulgaris 0X 19US, read-out: MIC
[23] = (8) Klebsiella pneumoniae ATCC 10031, read-out: MIC
[24] = (14) Bacillus subtilis ATCC 6633, read-out: MIC
[25] = (11) Shigella flexneri 2a 1675, read-out: MIC
[26] = (3) Proteus mirabilis IXM OM-19, read-out: MIC
[27] = (12) Shigella sonnei II 37148, read-out: MIC
[28] = (15) Micrococcus flavus ATCC 10240, read-out: MIC
[29] = (13) Bacillus megatherium 10778, read-out: MIC
[30] = (7) Escherichia coli kauffmann 0-1, read-out: MIC
[31] = (16) Staphylococcus aureus 209P, read-out: MIC

Row | SMILES | MIC [2] | MIC [3, 18] | MIC [4, 19] | MIC [5, 20] | MIC ([6]; Staphylococcus aureus, 209P) | MIC [7, 21] | MIC [8, 22] | MIC [9, 23] | MIC [10, 24] | MIC [11, 25] | MIC [12, 26] | MIC [13, 27] | MIC ([14]; Escherichia coli) | MIC [15, 28] | MIC [16, 29] | MIC ([1]; Staphylococcus) | MIC ([15]; Micrococcus flavus) | MIC ([7]; ENTERITIDIS) | other results
1 | O=C(O)Cn1nc(SCC2=C(C(=O)O)N3C(=O)[C@@H](NC(=O)[C@H](NC(=O)c4cnccc4O)c4ccccc4)[C@H]3SC2)ccc1=O [Example 18, 7-[D-α-(4-hydroxynicotinoylamido)-α-phenylacetamido]-3-(1-carboxymethyl-6(1H)-pyridazinon-3-yl)thiomethyl-Δ^3-cephem-4-carboxylic acid] | 3.13 µg/mL (≈ 4.8 µM) | 25 µg/mL (≈ 38.3 µM) | 6.25 µg/mL (≈ 9.58 µM) | 25 µg/mL (≈ 38.3 µM) | 1.56 µg/mL (≈ 2.39 µM) | 1.56 µg/mL (≈ 2.39 µM) | 1.56 µg/mL (≈ 2.39 µM) | 25 µg/mL (≈ 38.3 µM) | 0.39 µg/mL (≈ 0.598 µM) | 12.5 µg/mL (≈ 19.2 µM) | 0.78 µg/mL (≈ 1.2 µM) | 25 µg/mL (≈ 38.3 µM) | 12.5 µg/mL (≈ 19.2 µM) | 25 µg/mL (≈ 38.3 µM) | 0.39 µg/mL (≈ 0.598 µM) |  |  |  | MIC [1, 17]: 6.25 µg/mL (≈ 9.58 µM)
2 | Nc1nc(SCC(=O)O)cc(SCC2=C(C(=O)O)N3C(=O)[C@@H](NC(=O)[C@H](NC(=O)c4cnccc4O)c4ccccc4)[C@H]3SC2)n1 [Example 19, 7-[D-α-(4-hydroxynicotinoylamido)-α-phenylacetamido]-3-(2-amino-4-carboxymethylthiopyrimidin-6-yl)thiomethyl-Δ^3-cephem-4-carboxylic acid] | 3.13 µg/mL (≈ 4.58 µM) | 50 µg/mL (≈ 73.1 µM) | 12.5 µg/mL (≈ 18.3 µM) |  | 3.13 µg/mL (≈ 4.58 µM) | 1.56 µg/mL (≈ 2.28 µM) |  |  | 0.78 µg/mL (≈ 1.14 µM) | 6.25 µg/mL (≈ 9.14 µM) | 0.39 µg/mL (≈ 0.57 µM) | 25 µg/mL (≈ 36.6 µM) |  | 12.5 µg/mL (≈ 18.3 µM) | 0.78 µg/mL (≈ 1.14 µM) |  |  |  | MIC [1, 17]: 12.5 µg/mL (≈ 18.3 µM); MIC ([8]; Proteus vulgaris): 6.25 µg/mL (≈ 9.14 µM); MIC ([9]; Klebsiella pneumoniae): 25 µg/mL (≈ 36.6 µM); MIC [14, 30]: 12.5 µg/mL (≈ 18.3 µM)
3 | Cc1ncc(C(=O)N[C@@H](C(=O)N[C@@H]2C(=O)N3C(C(=O)O)=C(CSc4nnc(SCC(=O)O)s4)CS[C@H]23)c2ccccc2)c(O)n1 [Example 20, 7-[D-α-(4-hydroxy-2-methylpyrimidin-5-ylcarboxamido)-α-phenylacetamido]-3-(5-carboxymethylthio-1,3,4-thiadiazol-2-yl)thiomethyl-Δ^3-cephem-4-carboxylic acid] | 12.5 µg/mL (≈ 18.1 µM) | 50 µg/mL (≈ 72.5 µM) |  | 25 µg/mL (≈ 36.2 µM) |  | 3.13 µg/mL (≈ 4.54 µM) | < 0.09 µg/mL | 25 µg/mL (≈ 36.2 µM) | 3.13 µg/mL (≈ 4.54 µM) | 6.25 µg/mL (≈ 9.06 µM) | 0.39 µg/mL (≈ 0.565 µM) | 12.5 µg/mL (≈ 18.1 µM) | 12.5 µg/mL (≈ 18.1 µM) |  | 1.56 µg/mL (≈ 2.26 µM) | 12.5 µg/mL (≈ 18.1 µM) | 6.25 µg/mL (≈ 9.06 µM) |  | MIC ([4]; Staphylococcus): 12.5 µg/mL (≈ 18.1 µM); MIC [6, 31]: 3.13 µg/mL (≈ 4.54 µM)
4 | COc1cc(C)ncc1C(=O)N[C@@H](C(=O)N[C@@H]1C(=O)N2C(C(=O)O)=C(CSc3nnc(SCC(=O)O)s3)CS[C@H]12)c1ccccc1 [Example 37, 7[-α-(4-methoxy-6-methylnicotinoylamido)-α-phenylacetamido]-3-(5-carboxymethyl-thio-1,3,4-thiadiazol-2yl)-thiomethyl-Δ^3-cephem-4-carboxylic acid] | 6.25 µg/mL (≈ 8.89 µM) | 25 µg/mL (≈ 35.6 µM) | 12.5 µg/mL (≈ 17.8 µM) | 12.5 µg/mL (≈ 17.8 µM) | 1.56 µg/mL (≈ 2.22 µM) |  | 25 µg/mL (≈ 35.6 µM) | 12.5 µg/mL (≈ 17.8 µM) | 0.78 µg/mL (≈ 1.11 µM) | 3.13 µg/mL (≈ 4.45 µM) |  | 6.25 µg/mL (≈ 8.89 µM) | 6.25 µg/mL (≈ 8.89 µM) |  | 1.56 µg/mL (≈ 2.22 µM) | 6.25 µg/mL (≈ 8.89 µM) | 6.25 µg/mL (≈ 8.89 µM) | 3.13 µg/mL (≈ 4.45 µM) | MIC ([12]; Proteus mirabilis): 3.13 µg/mL (≈ 4.45 µM)
5 | O=C(O)CCCc1nnc(SCC2=C(C(=O)O)N3C(=O)[C@@H](NC(=O)[C@H](NC(=O)c4cnccc4O)c4ccccc4)[C@H]3SC2)s1 [Example 35, 7-[D-α-(4-hydroxynicotinoylamido)-α-phenylacetamido]-3-[5-(3-carboxypropyl)-1,3,4-thiadiazol-2yl]-thiomethyl-Δ^3 cephem-4-carboxylic acid] | 1.56 µg/mL (≈ 2.33 µM) |  | 12.5 µg/mL (≈ 18.6 µM) |  | 1.56 µg/mL (≈ 2.33 µM) | 0.78 µg/mL (≈ 1.16 µM) | 50 µg/mL (≈ 74.5 µM) |  | 0.78 µg/mL (≈ 1.16 µM) | 1.56 µg/mL (≈ 2.33 µM) | 0.78 µg/mL (≈ 1.16 µM) | 6.25 µg/mL (≈ 9.32 µM) |  | 3.13 µg/mL (≈ 4.67 µM) | 0.78 µg/mL (≈ 1.16 µM) |  |  |  | MIC [3]: 6.25 µg/mL (≈ 9.32 µM); MIC ([5]; Pseudomonas aeruginosa): 6.25 µg/mL (≈ 9.32 µM); MIC ([9]; Klebsiella pneumoniae): 6.25 µg/mL (≈ 9.32 µM); MIC [14, 30]: 3.13 µg/mL (≈ 4.67 µM)
6 | O=C(O)CSc1nnc(SCC2=C(C(=O)O)N3C(=O)[C@@H](NC(=O)[C@H](NC(=O)c4csccc4=O)c4ccc(O)cc4)[C@H]3SC2)s1 [Example 31, 7-[D-α-(4-thiopyrone-3-carboxamido)-α-p-hydroxyphenylacetamido]-3-[5-carboxymethylthio-1,3,4-thiadiazol-2-yl]thiomethyl-Δ^3-cephem-4-carboxylic acid] | 0.39 µg/mL (≈ 0.551 µM) | 50 µg/mL (≈ 70.6 µM) | 6.25 µg/mL (≈ 8.83 µM) | 50 µg/mL (≈ 70.6 µM) |  |  | 1.56 µg/mL (≈ 2.2 µM) | 6.25 µg/mL (≈ 8.83 µM) | 0.39 µg/mL (≈ 0.551 µM) |  | 0.39 µg/mL (≈ 0.551 µM) |  | 3.13 µg/mL (≈ 4.42 µM) |  | 0.39 µg/mL (≈ 0.551 µM) | 3.13 µg/mL (≈ 4.42 µM) | 3.13 µg/mL (≈ 4.42 µM) | 0.39 µg/mL (≈ 0.551 µM) | MIC [6, 31]: 0.39 µg/mL (≈ 0.551 µM); MIC ([11]; Shigella flexneri): 0.78 µg/mL (≈ 1.1 µM); MIC ([13]; Shigella sonnei): 3.13 µg/mL (≈ 4.42 µM)
7 | Cc1cc(O)c(C(=O)N[C@@H](C(=O)N[C@@H]2C(=O)N3C(C(=O)O)=C(CSc4nnc(CC(=O)O)s4)CS[C@H]23)c2ccccc2)cn1 [Example 38, 7-[D-α-(4-hydroxy-6-methylnicotinoylamido)-α-phenylacetamido]-3-(5-carboxymethyl-1,3,4-thiadiazol-2-yl)-thiomethyl-Δ^3-cephem-4-carboxylic acid] | 1.56 µg/mL (≈ 2.38 µM) | 50 µg/mL (≈ 76.1 µM) | 12.5 µg/mL (≈ 19 µM) | 12.5 µg/mL (≈ 19 µM) | 3.13 µg/mL (≈ 4.77 µM) |  |  | 12.5 µg/mL (≈ 19 µM) |  | 1.56 µg/mL (≈ 2.38 µM) | 0.78 µg/mL (≈ 1.19 µM) | 3.13 µg/mL (≈ 4.77 µM) | 3.13 µg/mL (≈ 4.77 µM) | 12.5 µg/mL (≈ 19 µM) |  |  |  | 1.56 µg/mL (≈ 2.38 µM) | MIC ([10]; Bacillus subtilis): 1.56 µg/mL (≈ 2.38 µM); MIC ([16]; Bacillus, 10778): 1.56 µg/mL (≈ 2.38 µM)
8 | Cc1cc(O)c(C(=O)N[C@@H](C(=O)N[C@@H]2C(=O)N3C(C(=O)O)=C(CSc4nnc(CCCC(=O)O)s4)CS[C@H]23)c2ccccc2)cn1 [Example 36, 7-[D-α-(4-hydroxy-6-methylnicotinoylamido)-α-phenylacetamido]-3-[5-(3-carboxypropyl)-1,3,4-thiadiazol-2-yl]thiomethyl-Δ^3-cephem-4-carboxylic acid] | 1.56 µg/mL (≈ 2.28 µM) | 25 µg/mL (≈ 36.5 µM) | 12.5 µg/mL (≈ 18.3 µM) | 6.25 µg/mL (≈ 9.13 µM) | 1.56 µg/mL (≈ 2.28 µM) |  | 100 µg/mL (≈ 146 µM) | 6.25 µg/mL (≈ 9.13 µM) |  | 0.78 µg/mL (≈ 1.14 µM) | 0.39 µg/mL (≈ 0.57 µM) | 3.13 µg/mL (≈ 4.57 µM) | 1.56 µg/mL (≈ 2.28 µM) | 6.25 µg/mL (≈ 9.13 µM) |  |  |  | 1.56 µg/mL (≈ 2.28 µM) | MIC ([10]; Bacillus subtilis): 1.56 µg/mL (≈ 2.28 µM); MIC ([16]; Bacillus, 10778): 0.78 µg/mL (≈ 1.14 µM)
